Experimental data: patent US20100280053A1, “CyclopropylmethYl-[7-(5,7-dimethyl-benzo[1,2,5]thiodiazol-4-yl)-2,5,6-trimethyl-7H-pyrrolo[2,3-d]pyrimidin-4-yl]-4-propyl-amine as a CRF Antagonist” (NOVARTIS AG, priority 2003, published 2010)

Target: T1, human recombinant CRF1 (Homo sapiens, UniProt P34998)
T1 construct: expressed in transfected cells
T1 sequence (P34998 24-415): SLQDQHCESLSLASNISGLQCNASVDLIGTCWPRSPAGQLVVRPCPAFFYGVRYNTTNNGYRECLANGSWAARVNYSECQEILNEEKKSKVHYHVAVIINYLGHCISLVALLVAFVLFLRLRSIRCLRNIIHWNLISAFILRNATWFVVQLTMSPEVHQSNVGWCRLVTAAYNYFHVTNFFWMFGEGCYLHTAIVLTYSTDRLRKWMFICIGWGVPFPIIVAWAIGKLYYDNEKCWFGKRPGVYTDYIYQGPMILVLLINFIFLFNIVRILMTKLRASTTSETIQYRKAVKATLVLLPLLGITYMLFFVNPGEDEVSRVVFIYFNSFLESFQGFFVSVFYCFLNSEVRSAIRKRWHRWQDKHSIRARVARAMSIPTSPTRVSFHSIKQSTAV
Experiment: Inhibition of CRF-stimulated cyclic AMP accumulation in CHO cells expressing human recombinant CRF1
Type: cell-based
Conditions: CRF concentration-response curves in presence of antagonist (1 nM-1 μM)
Protocol: Chinese hamster ovary (CHO) cells expressing human recombinant CRF1 (Chen et al., Proc Natl Acad Sci USA 90, 8967-8971, 1993) are propagated in Dulbecco's modified Eagle medium supplemented with 10% foetal calf serum, non-essential aminoacids, 100 U/ml penicillin, 100 mg/l streptomycin and 1 g/l geneticin (G418). For cyblic AMP determinations, cells are grown to confluence in 24-multiwell plates. Stimulation of cyclic AMP accumulation by CRF (human/rat form) is measured in intact cells, using the [^3H]adenine labelling technique, as described previously (Schoeffter et al., Neuropharmacology 36, 429-437, 1997).
Concentration-response curves for CRF are constructed in the presence of putative antagonists (1 nM-1 μM) or vehicle (dimethyl sulfoxide 1% vol). IC50 values of antagonists are calculated by fitting the percent inhibition of the effect of CRF (10 nM) by increasing concentrations of the antagonists. The fit is done using the nonlinear logistic function of the Origin software package (OriginLab Corporation, Northampton, Mass., USA).

mode of CRF1 receptor antagonism: non-competitive CRF1 receptor antagonist
SMILES: CCCN(CC1CC1)c1nc(C)nc2c1c(C)c(C)n2-c1c(C)cc(C)c2nsnc12 [compound of formula A, Cyclopropylmethyl-[7-(5,7-dimethyl-benzo[1,2,5]thiadiazol-4-yl)-2,5,6-trimethyl-7H-pyrrolo[2,3-d]pyrimidin-4-yl]-propyl-amine]
